Laboratory results taken from patent publication US12691070B2, “Cationic lipids and preparation method thereof” (RiboX Therapeutics HK Limited, priority 2023, dated 2026).

What was measured:
[1] = tested on: Hep G2 cells; test: In vitro toxicity (CellTiter-Glo cell viability), Hep G2; assay type: cell-based;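 also: percent of untreated cells luminescence signal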
Procedure, shortened: (§1)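 First, cells receive RNA-LNPs at 1 μg/mL by transfection. After 72 hours, CellTiter-Glo reagent is added per kit protocol. Luminescence is then read and converted to cell viability.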

[2] = tested on: BALB/C mice; test: Local tolerance determination by footpad injection; assay type: in vivo; conditions: cirRNA (SEQ ID NO: 1) LNP, 0.175 mg*kg-1 subcutaneous into the footpad, 24 hours post minus prior
Description: 6-8 week old, female BALB/C mice were injected with 0.175 mg*kg-1 RNA LNPs by subcutaneous injection into the footpad. Prior to, and 24 hours post injections, injected footpad thickness was determined by a caliper.

[3] = RNA encapsulation efficacy by Quant-IT Ribogreen kit; assay type: physicochemical; conditions: for Encapsulation Efficiency %: LNP with cirRNA (SEQ ID NO: 1); for Encapsulation Efficiency: LNP with mRNA (SEQ ID NO: 2)
Procedure, shortened: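 Ribogreen fluorescence with and without Triton X-100 gave encapsulation as 100% − (intact/lysed) signal; DLS size, PDI and zeta potential measured on a Zetasizer. Particles: 50:10:38.5:1.5 lipid mix, luciferase circRNA or mRNA, lipid:nucleotide 15 or 6, microfluidic assembly at pH 4.5, PBS-dialyzed.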

[4] = LNP size and polydispersity index (PDI) by dynamic light scattering; assay type: physicochemical; conditions: for Size: in nm (unit assumed)
Procedure, shortened: (§2)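 LNPs of ionizable lipid/DSPC/cholesterol/DMG-PEG 2000 (50:10:38.5:1.5) made by microfluidic mixing of luciferase circRNA or mRNA in pH 4.5 acetate with lipids in ethanol (3:1, 12 ml/min), ionizable lipid:nucleotide 15 or 6, then dialyzed against PBS. Size, PDI (DLS) and zeta potential on Zetasizer; encapsulation by Ribogreen ± Triton X-100.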

[5] = tested on: Aspartate Aminotransferase (AST); test: Liver enzyme elevation in serum, AST; assay type: in vivo; conditions: cirRNA (SEQ ID NO: 1) LNPs, BALB/C mice, intravenous 0.5 MPK
Description: (§3) 6-8 week old, female BALB/C mice were injected with 0.5 mg*kg-1 of RNA LNPs by intravenous injection. At 2 and 24 hours post injection, animals were bled and sera concentrations of Alanine Aminotransferase (ALT) and Aspartate Aminotransferase (AST) were determined by a blood chemistry analyzer.

[6] = tested on: RAW 264.7 cells; test: In vitro expression of firefly-luciferase, RAW 264.7; assay type: cell-based
Procedure, shortened: (§4)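 Luminescence from cell lysates reports expression: luciferase activity was measured 72 h after transfection with 100 ng/mL RNA-LNPs encoding firefly luciferase.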

[7] = LNP zeta potential (Zetasizer); assay type: physicochemical
Procedure, shortened: as §2

[8] = tested on: BALB/C mice; test: In vivo expression, whole-body luminescence (IVIS)
Description: 6-8 week old, female BALB/C mice were injected with 0.05 mg*kg-1 of RNA-LNPs encoding for firefly-luciferase by intravenous injection. At 6 hours post injection, animals were intraperitoneally injected with 15 mg/ml of Luciferin substrate and whole-body luminescence was determined by a bioluminescent in vivo imaging system (IVIS).

[9] = tested on: MCP-I; test: MCP-I cytokine elevation in serum; assay type: in vivo; conditions: cirRNA (SEQ ID NO: 1) LNPs, mice
Description: 6-8 week old, female BALB/C mice were injected with 0.5 mg*kg-1 of RNA LNPs by intravenous injection. At 2 and 24 hours post injection, animals were bled and sera concentrations of MCP-I were determined by an immunoassay (Luminex).

[10] = tested on: Hep G2 cells; test: In vitro expression of firefly-luciferase, Hep G2; assay type: cell-based
Procedure, shortened: as §4

[11] = tested on: RAW 264.7 cells; test: In vitro toxicity (CellTiter-Glo cell viability), RAW 264.7; assay type: cell-based;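 also: percent of untreated cells luminescence signal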
Procedure, shortened: as §1

[12] = tested on: Alanine Aminotransferase (ALT); test: Liver enzyme elevation in serum, ALT; assay type: in vivo; conditions: cirRNA (SEQ ID NO: 1) LNPs, BALB/C mice, intravenous 0.5 MPK
Description: as §3

[13] = cirRNA (SEQ ID NO: 1) LNPs, Hep G2 cells
[14] = mRNA (SEQ ID NO: 2) LNP, 1 μg/mL, 72 hours post transfection
[15] = cirRNA (SEQ ID NO: 1) LNPs, firefly-luciferase luminescence, RAW 264.7 cells
[16] = mRNA (SEQ ID NO: 2) LNP, 100 ng/mL, 72 hours post transfection, luciferase activity
[17] = cirRNA (SEQ ID NO: 1) LNPs, BALB/C mice
[18] = mRNA (SEQ ID NO: 2) LNP, 0.05 mg*kg-1 intravenous, 6 hours post injection
[19] = cirRNA (SEQ ID NO: 1) LNPs, firefly-luciferase luminescence, Hep G2 cells
[20] = cirRNA (SEQ ID NO: 1) LNPs, RAW 264.7 cells

Row | Compound | In vitro Viability HepG2 [1, 13] | In vitro Viability HepG2 [1, 14] | Footpad Thickness (24 h−0 h, mm) [2] | Encapsulation Efficiency % [3] | Encapsulation Efficiency [3] | PDI ([4]; LNP with cirRNA (SEQ ID NO: 1)) | Size ([4]; LNP with cirRNA (SEQ ID NO: 1)) | PDI ([4]; LNP with mRNA (SEQ ID NO: 2)) | Size ([4]; LNP with mRNA (SEQ ID NO: 2)) | AST in Sera (IU/L) 2 hours After 0.5 MPK Injection [5] | AST in Sera (IU/L) 24 hours After 0.5 MPK Injection [5] | In vitro Expression RAW [6, 15] | In vitro Expression RAW [6, 16] | Zeta (mV) ([7]; LNP with cirRNA (SEQ ID NO: 1)) | Zeta (mV) ([7]; LNP with mRNA (SEQ ID NO: 2)) | In vivo Expression (Whole Body) [8, 17] | In vivo Expression (Whole Body) [8, 18] | MCP-I in Sera 2 hours After 0.5 MPK Injection [9] | MCP-I in Sera 24 hours After 0.5 MPK Injection [9] | In vitro Expression HepG2 [10, 19] | also measured
1 | CCCCC/C=C\C/C=C\CCCCCCCCN(CCCCCCCC(=O)OC(CCCCCCCC)CCCCCCCC)CCOC(=O)NCCCN(CC)CC [Lipid 131, heptadecan-9-yl 3-ethyl-12-((9Z,12Z)-octadeca-9,12-dien-1-yl)-8-oxo-9-oxa-3,7,12-triazaicosan-20-oate] | 83% | 89% | 1.17 mm | 96% | 90.68% | 0.22 | 74.78 | 0.1606 | 84.16 | 161.27 IU/L | 83.17 IU/L | 4.04E+06 | 9.55E+05 | 5.61 mV | 15.29 mV | 2.27E+08 | 4.52E+07 | 5003.82 pg/mL | 16.42 pg/mL | 4.49E+06 | In vitro Expression HepG2 [10, 16]: 5.66E+06; In vitro Viability RAW [11, 20]: 77%; In vitro Viability RAW [11, 14]: 96%; ALT in Sera (IU/L) 2 hours After 0.5 MPK Injection [12]: 51.17 IU/L; ALT in Sera (IU/L) 24 hours After 0.5 MPK Injection [12]: 44.57 IU/L
2 | CCCCC/C=C\C/C=C\CCCCCCCCN(CCCCCC(=O)OCCCCCCCCCCC)CCOC(=O)NCc1ncc[nH]1 [Lipid 90, undecyl 6-((2-((((1H-imidazol-2-yl)methyl)carbamoyl)oxy)ethyl)((9Z,12Z)-octadeca-9,12-dien-1-yl)amino)hexanoate] | 95% | 85% | 0.20 mm | 87% | 88% | 0.06 | 67.68 | 0.06127 | 65.54 | 77.50 IU/L | 64.70 IU/L | 8.50E+04 | 1.21E+05 | 1.34 mV | 7.6 mV | 8.80E+07 | 2.73E+07 | 153.05 pg/mL | 33.08 pg/mL | 1.27E+05 | In vitro Expression HepG2 [10, 16]: 2.16E+05; In vitro Viability RAW [11, 20]: 24%; In vitro Viability RAW [11, 14]: 96%; ALT in Sera (IU/L) 2 hours After 0.5 MPK Injection [12]: 40.57 IU/L; ALT in Sera (IU/L) 24 hours After 0.5 MPK Injection [12]: 37.87 IU/L
